Key:
10-mer complementary DNA = assay: Tm of duplex between PNA and 10-mer complementary DNA (UV/Vis); assay type: binding; settings: 4 μM PNA and 4 μM 10-mer DNA, aqueous buffer pH 7.16, 10 mM sodium phosphate, 100 mM NaCl
Protocol: The PNA derivatives in Table 1 were evaluated for their binding affinity for 10-mer DNAs complementarily targeting either the N-terminal or C-terminal. The binding affinity was assessed by Tm value for the duplex between PNA and 10-mer complementary DNA. The duplex between PNA derivatives in Table 1 and fully complementary DNAs show Tm values too high to be reliably determined in aqueous buffer solution, since the buffer solution tends to boil off during the Tm measurement.
Tm values were determined on an UV/Vis spectrometer as follows. A mixed solution of 4 μM PNA oligomer and 4 μM complementary 10-mer DNA in 4 mL aqueous buffer (pH 7.16, 10 mM sodium phosphate, 100 mM NaCl) in 15 mL polypropylene falcon tube was incubated at 90° C. for a minute and slowly cooled down to ambient temperature over several minutes. Then the solution was transferred into a 3 mL quartz UV cuvette equipped with an air-tight cap, and subjected to a Tm measurement at 260 nm on an Agilent 8453 UV/Visible spectrophotometer or a similar one as described in the prior art [PCT/KR2009/001256] or with minor modifications. The 10-mer complementary DNAs for Tm measurement were purchased from Bioneer (www.bioneer.com, Dajeon, Republic of Korea) and used without further purification.

human AR mRNA = assay: qPCR (SYBR Green) of AR mRNA level in MCF7 cells; settings: 5 hours
full-length AR protein = assay: Western blot of AR protein in MCF7 cells; assay type: cell-based, human; settings: 100 zM to 300 aM, 48 hours
Protocol: 4 culture dishes were used for 4 negative controls. 48 hours later, cells were washed 2 times with cold PBS, and then subjected to lysis with 200 μL 1× cell lysis buffer (Cat. No. 9803, Cell Signaling Tech) supplemented with 1× protease inhibitor (Cat. No. P8340, Sigma). The lysates were collected in 1.5 ml e-tube. 200 μL of each lysate was mixed with 100 μL 3× sample buffer, and boiled for 5 min at 100 ? . 20 μL of each lysate (12 lysates in total). 4 negative controls and 8 ASO treatment samples) was subjected to electrophoretic separation on a 8% SDS-PAGE gel, and transferred onto a 0.2 μm PVDF membrane. The membrane was probed with anti-AR antibody (Cat. No. 5153, Cell Signaling Tech) and anti-β-actin antibody (Cat. No. sc4778, Santa Cruz). FIG. 10A provides the AR Western blot data obtained therefrom. Multiple (negative) control samples were used to overcome technical artifacts of western blot procedures.

C57BL/6 mice = assay: Hair growth in C57BL/6 mice upon topical administration (brightness score, hair weight); assay type: in vivo, mouse; settings: for average hair weight: hair growth between Day 0 and Day 21
Protocol: (§1) [Hair Removal and Grouping] In Day 0, 7 week old female C57BL/6 mice were anesthetized with zoletil/rompun, and the hair in the back was cut and removed with a clipper and wax, respectively. Mice with flawless (i.e. spotless) hair removal were selected and randomly assigned into three groups (7 animals per group).
[Topical Administration] The topical solutions of “ASO 1” were prepared by diluting a mother stock solution of “ASO 1” to 0.2 fM or 1 fM in aqueous 30% (v/v) ethanol supplemented with 3% (v/v) glycerin. About 100 μL of 0 (negative control), 0.2, or 1 fM “ASO 1” was topically administered in the back of each animal using a cotton ball in Days 3, 7, 10, and 14.
[Digital Image Scoring for Hair Growth] For scoring the hair growth, the animals were anesthetized and photographed by group as shown in FIG. 11A using a digital camera at a fixed value of exposure time and illumination. The digital image for the area of the hair removal for each animal was selected and digitally scored for the average brightness over the selected area using “ImageJ” program. Lower brightness score is taken as faster hair growth. Brightness scores of individual animals were combined by group, and subjected to statistical analysis by student's t-test. FIG. 11B summarizes the relative brightness scores of the ASO treated groups against the control group. The relative brightness score tended to decrease with days in the treatment groups. […] Thus, “ASO 1” was concluded to promote hair growth upon topical administrations at 1 fM.
[Scoring by Hair Weight] In Day 21, the animals were anesthetized and the hair in the back was cut with a clipper. The hair samples from individual animals were combined by group, and weighed to evaluate the hair growth between Day 0 and Day 21. The average hair weight was 70.5 mg/animal for the control group, 90.8 mg/animal for the 0.2 fM treatment group, and 94.4 mg/animal for the 1 fM treatment group. Thus “ASO 1” was concluded to promote hair growth upon topical administrations at 0.2 fM as well as 1 fM.
as §1, with “(10” for “(7”
[Topical Administration] The topical solutions of “ASO 5” were prepared by diluting a mother stock solution of “ASO 5” to 1, 5, or 25 fM in aqueous 30% (v/v) ethanol supplemented with 3% (v/v) glycerin. About 100 μL of each ASO solution or vehicle (negative control) was topically administered to in the back of an animal using a cotton ball in Days 3, 7, 10, 14 and 21.
Following the shaving in Day 21, the animals received a single topical administration of either vehicle or “ASO 5” at 1 fM, 5 fM, or 25 fM. In Day 53, the hair in the back was collected by shaving with a clipper to determine the total amount of hair growth between Days 21 and 53. The average hair weights of the 1 fM, 5 fM, and 25 fM groups were 1,630%, 1,450%, and 771% of the non-treated group, respectively. Thus “ASO 5” was concluded to promote hair growth upon topical administrations at 1 to 25 fM.
as §1, with “(9” for “(7”
[Topical Administration] The topical solutions of “ASO 10” were prepared by diluting a mother stock solution of “ASO 10” to 1, 5, or 25 fM in aqueous 30% (v/v) ethanol supplemented with 3% (v/v) glycerin. About 100 μL of each ASO solution or vehicle (negative control) was topically administered to in the back of an animal using a cotton ball in Day 2.

androgen receptor = assay: AR IHC of skin samples after topical administration in mice; assay type: in vivo, mouse; settings: topical 0.2 fM or 1 fM, skin sampled Day 24
Excerpt: [AR IHC of Skin Sample] Following the shaving in Day 21, the mice received a single topical administration of either vehicle or “ASO 1” according to the group. In Day 24, the skin of the area with hair removal was sampled for immunohistochemistry (IHC) analysis against androgen receptor. The skin samples were cryo-sectioned and subjected to immunostaining in series with a primary anti-AR antibody (Cat. No. sc-816, Santa Cruz) at 1:100 dilution, with a secondary anti-IgG (Cat No. BA-1100, Vector) at 1:200 dilution, and then with Dylight 594-steptavidin (Cat No. SA-5594, Vector, Calif., USA) at 1:200 dilution for red fluoresence tagging. The IHC images were captured on an Olympus fluorescence microscope for changes in the AR expression level upon topical treatment with “ASO 1”.
[AR Immunohistochemistry of Skin Samples] After the hair cut in Day 27, The animals topically received further either vehicle or “ASO 10” at 1, 5, or 25 fM in Days 27 and 29. Skin samples of the back were collected in Day 30 for immunohistochemical analysis against androgen receptor. The skin samples were subjected to immunostaining against androgen receptor as described in “Example 7”. IHC images were captured on a Zeiss slide scanner. FIG. 14B is a representative set of AR IHC images. […] It would be difficult to clearly state that the AR expression in hair follicles decreased in the treatment groups due to the marked increases in the number of hair follicles in the treatment groups.

| Substance | Tm Value, 10-mer DNA against C-Terminal (10-mer complementary DNA) | Tm Value, 10-mer DNA against N-Terminal (10-mer complementary DNA) | exon message levels (exons 4-6) relative to negative control (human AR mRNA; 1 aM) | decrease of exon message levels (exons 4-6) (human AR mRNA; 100 zM) | AR band intensity vs lysates without ASO treatment (full-length AR protein) | average hair weight (C57BL/6 mice; 0.2 fM topical) | average hair weight (C57BL/6 mice; 1 fM topical) | brightness score vs non-treated group (C57BL/6 mice; Day 13, 1 fM topical in Days 3, 7, 10, 14, lower brightness = faster hair growth) | AR expression in hair follicles (IHC) (androgen receptor) | AR expression in the muscle layer underneath the dermis (IHC) (androgen receptor) |
| --- | --- | --- | --- | --- | --- | --- | --- | --- | --- | --- |
| Fethoc-C(1O2)TT-A(6)CC-A(6)GG(6)-CA(6)A-NH2 (antisense CTTACCAGGCAA; N-Fethoc, C-terminal amide, chemistry not fully specified) [ASO 13] | 87.0 °C | 83.0 °C |  |  |  |  |  |  |  |  |
| Fethoc-GA(5)T-AC(1O2)C-A(5)GG(6)-CAA(5)-G-NH2 (antisense GATACCAGGCAAG; N-Fethoc, C-terminal amide, chemistry not fully specified) [ASO 8] | 86.0 °C | 87.4 °C |  |  |  |  |  |  |  |  |
| Fethoc-TA(5)C-CAG(6)-GC(1O2)A-A(5)GG(6)-C—NH2 (antisense TACCAGGCAAGGC; chemistry not fully specified) [ASO 9] | 84.5 °C | 84.3 °C |  |  |  |  |  |  |  |  |
| Fmoc-GA(5)A-GC(1O2)C-A(5)GG-C(1O2)AA(5)-G-NH2 (antisense GAAGCCAGGCAAG; N-Fmoc, C-terminal amide, chemistry not fully specified) [ASO 1] |  |  | ~60 % of the negative control | more than 80% | considerably weaker | 90.8 mg/animal | 94.4 mg/animal | significantly lower | markedly inhibited | decreased |
